pIC50: −log10 of the molar value.

The target of the test is T1, KDM4C (Homo sapiens, UniProt Q9H3R0).
T1 construct: N-terminal GST-tagged KDM4C^2-372 was purchased from BPS Biosciences; GST (N); purchased BPS Biosciences
T1 sequence (Q9H3R0 2-372): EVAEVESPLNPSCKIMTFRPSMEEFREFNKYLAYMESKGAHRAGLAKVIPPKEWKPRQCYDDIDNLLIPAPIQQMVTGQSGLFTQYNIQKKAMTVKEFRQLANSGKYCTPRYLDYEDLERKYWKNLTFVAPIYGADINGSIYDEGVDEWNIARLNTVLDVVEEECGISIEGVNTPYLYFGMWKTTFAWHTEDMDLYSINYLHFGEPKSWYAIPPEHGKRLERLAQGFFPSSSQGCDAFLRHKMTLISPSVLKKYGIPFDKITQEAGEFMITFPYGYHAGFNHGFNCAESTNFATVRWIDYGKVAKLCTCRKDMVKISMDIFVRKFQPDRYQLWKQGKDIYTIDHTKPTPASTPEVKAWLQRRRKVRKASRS
Put plainly: KDM4C Assay (SAMDI mass spectrometry demethylase assay). Format: biochemical. Particulars: N-terminal GST-tagged KDM4C 2-372; class symbols; read-out: 4C IC50. Summed up:
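GST-tagged KDM4C 2-372 (5 nM) preincubated 30 min with compound, then H3K9me3 biotinylated peptide (500 nM) and 2-oxoglutarate (15 μM) added in HEPES pH 8.0 with ascorbate, Fe(II), TCEP; 150 min at 25 °C, formic-acid quench. Conversion by SAMDI mass spectrometry from substrate/product peak AUC; IC50 from dose-response.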

The term pIC50 denotes −log10 of the IC50, conventionally taken in molar units. For the compound `CN(C)CCn1ncc(-c2ccccc2)c1Nc1cnccc1C(=O)O` [Compound 65, 3-((1-(2-(dimethylamino)ethyl)-4-phenyl-1H-pyrazol-5-yl)amino)isonicotinic acid], the pIC50 is 5.00 to 6.00.

Take `Cc1c(-c2ccccc2)nn(CCN2CCC(F)(F)CC2)c1Nc1cnccc1C(=O)O` [Compound 66, 3-((1-(2-(4,4-difluoropiperidin-1-yl)ethyl)-4-methyl-3-phenyl-1H-pyrazol-5-yl)amino)isonicotinic acid]: the negative-log IC50 (pIC50) was 4.00 to 5.00.

For `Cc1c(Nc2cnccc2C(=O)O)nn(CCN2CCC(F)(F)CC2)c1-c1ccccc1` [Compound 67, 3-((1-(2-(4,4-difluoropiperidin-1-yl)ethyl)-4-methyl-5-phenyl-1H-pyrazol-3-yl)amino)isonicotinic acid], the pIC50 was 6.00 to 7.00.

With `Cc1c(Nc2cnccc2C(=O)O)cnn1C1CCNCC1` [Compound 68, 3-((5-methyl-1-(piperidin-4-yl)-1H-pyrazol-4-yl)amino)isonicotinic acid], the pIC50 was 6.00 to 7.00.

Turning to `Cc1nn(C2CCNCC2)cc1Nc1cnccc1C(=O)O` [Compound 69, 3-((3-methyl-1-(piperidin-4-yl)-1H-pyrazol-4-yl)amino) isonicotinic acid], the negative logarithm of the IC50 (pIC50) is 5.00 to 6.00.

Take `Cc1nn(-c2ccccc2C#N)cc1Nc1cnccc1C(=O)O` [Compound 70, 3-((1-(2-cyanophenyl)-3-methyl-1H-pyrazol-4-yl)amino) isonicotinic acid]: the negative logarithm of the IC50 (pIC50) is 5.00 to 6.00.

Consider `Cc1cn(-c2ccccc2C#N)nc1Nc1cnccc1C(=O)O` [Compound 71, 3-((1-(2-cyanophenyl)-4-methyl-1H-pyrazol-3-yl)amino) isonicotinic acid], for which the pIC50 is 6.00 to 7.00.

`O=C(O)c1ccncc1Nc1nn(C2CCOCC2)cc1-c1ccccc1` [Compound 72, 3-((4-phenyl-1-(tetrahydro-2H-pyran-4-yl)-1H-pyrazol-3-yl)amino)isonicotinic acid]: the pIC50 was 5.00 to 6.00.

For the compound `O=C(O)c1ccncc1Nc1nn(CCC(F)(F)F)cc1-c1ccccc1` [Compound 73, 3-((4-phenyl-1-(3,3,3-trifluoropropyl)-1H-pyrazol-3-yl)amino) isonicotinic acid], the pIC50 is 6.00 to 7.00.

As to `O=C(O)c1ccncc1Nc1nn(CCC(F)(F)F)cc1-c1ccncc1` [Compound 74, 3-((4-(pyridin-4-yl)-1-(3,3,3-trifluoropropyl)-1H-pyrazol-3-yl)amino)isonicotinic acid], the pIC50 is 6.00 to 7.00.

For the compound `COc1ccc(-n2nc(C)c(Nc3cnccc3C(=O)O)c2C)cc1` [Compound 75, 3-((1-(4-methoxyphenyl)-3,5-dimethyl-1H-pyrazol-4-yl)amino)isonicotinic acid], the pIC50 is 5.00 to 6.00.

In the case of `Cc1nn(-c2ccc(O)cc2)c(C)c1Nc1cnccc1C(=O)O` [Compound 76, 3-((1-(4-hydroxyphenyl)-3,5-dimethyl-1H-pyrazol-4-yl)amino)isonicotinic acid], the negative-log IC50 (pIC50) is 5.00 to 6.00.

`Cc1nn(-c2ccccc2)c(C)c1Nc1cnccc1C(=O)O` [Compound 77, 3-((3,5-dimethyl-1-phenyl-1H-pyrazol-4-yl)amino)isonicotinic acid]: the pIC50 was 6.00 to 7.00.

As for `Cc1cc(Nc2cnccc2C(=O)O)n(C2CCOCC2)n1` [Compound 78, 3-((3-methyl-1-(tetrahydro-2H-pyran-4-yl)-1H-pyrazol-5-yl)amino) isonicotinic acid], the pIC50 was 6.00 to 7.00.

For the compound `Cc1c(Nc2cnccc2C(=O)O)cnn1[C@H]1CC[C@@H](N)CC1` [Compound 79, 3-((1-((cis)-4-aminocyclohexyl)-5-methyl-1H-pyrazol-4-yl)amino)isonicotinic acid], the pIC50 was 7.00 to 9.00.

In the case of `Cc1c(Nc2cnccc2C(=O)O)cnn1C1CCN(C2CCC2)CC1` [Compound 96], the negative logarithm of the IC50 (pIC50) is 6.00 to 7.00.

Regarding `Cc1nn(C2CCN(C(=O)c3ccccc3)CC2)cc1Nc1cnccc1C(=O)O` [Compound 97, 3-(1-(1-benzoylpiperidin-4-yl)-3-methyl-1H-pyrazol-4-ylamino) isonicotinic acid], the negative logarithm of the IC50 (pIC50) is 5.00 to 6.00.

With `Cc1c(Nc2cnccc2C(=O)O)cnn1C1CCN(C(=O)c2ccccc2)CC1` [Compound 98, 3-(1-(1-benzoylpiperidin-4-yl)-5-methyl-1H-pyrazol-4-ylamino) isonicotinic acid], the negative logarithm of the IC50 (pIC50) is 6.00 to 7.00.

Regarding `Cc1nn(C2CCN(CC(F)(F)F)CC2)cc1Nc1cnccc1C(=O)O` [Compound 99, 3-(3-methyl-1-(1-(2,2,2-trifluoroethyl)piperidin-4-yl)-1H-pyrazol-4-ylamino)isonicotinic acid], the pIC50 was 5.00 to 6.00.

On to `Cc1c(Nc2cnccc2C(=O)O)cnn1C1CCN(CC(F)(F)F)CC1` [Compound 100, 3-(5-methyl-1-(1-(2,2,2-tri-fluoro-ethyl)piperidin-4-yl)-1H-pyrazol-4-ylamino)isonicotinic acid], for which the pIC50 is 6.00 to 7.00.

As for `COC(=O)c1ccncc1Nc1cn(C2CCN(C(C)C)CC2)nc1C` [Compound 101, methyl 3-((1-(1-isopropylpiperidin-4-yl)-3-methyl-1H-pyrazol-4-yl)amino)isonicotinate], the pIC50 is 4.00 to 5.00.

With `Cc1nn(C2CCN(C(C)C)CC2)cc1Nc1cnccc1C(=O)O` [Compound 102, 3-((1-(1-isopropylpiperidin-4-yl)-3-methyl-1H-pyrazol-4-yl)amino)isonicotinic acid], the pIC50 was 6.00 to 7.00.

On to `COC(=O)c1ccncc1Nc1cnn(C2CCN(C(C)C)CC2)c1C` [Compound 103, methyl 3-((1-(1-isopropylpiperidin-4-yl)-5-methyl-1H-pyrazol-4-yl)amino)isonicotinate], for which the negative logarithm of the IC50 (pIC50) was 4.00 to 5.00.

In the case of `Cc1c(Nc2cnccc2C(=O)O)cnn1C1CCN(C(C)C)CC1` [Compound 104], the pIC50 is 6.00 to 7.00.

`Cc1nn(CCN(C)C)cc1Nc1cnccc1C(=O)O` [Compound 107, 3-(1-(2-(dimethylamino)ethyl)-3-methyl-1H-pyrazol-4-ylamino) isonicotinic acid]: the pIC50 was 5.00 to 6.00.

Regarding `Cc1nn(C2CCCN(C)CC2)cc1Nc1cnccc1C(=O)O` (stereo not drawn) [Compound 111, 3-(3-methyl-1-(1-methylazepan-4-yl)-1H-pyrazol-4-ylamino) isonicotinic acid], the pIC50 is 6.00 to 7.00.

As to `Cc1c(Nc2cnccc2C(=O)O)cnn1C1CCCN(C)CC1` (stereo not drawn) [Compound 112, 3-((5-methyl-1-(1-methylazepan-4-yl)-1H-pyrazol-4-yl)amino)isonicotinic acid], the negative-log IC50 (pIC50) is 6.00 to 7.00.

(Values after US20170291890A1 (Epizyme, Inc., priority 2014, published 2017).)
